The NIST ThermoML archive (doi:10.1021/je050200w)
± gives the expanded uncertainty stated by the source.

Assay: xn = mol fraction of the nth substance listed
Conditions: 101 kPa, Liquid

CCCCCCCCCO [nonan-1-ol] + CCCCCCCCO
Conditions	mass density [kg/m3]	viscosity [mPa·s]
283.15 K, x2 = 0	835 ± 0.9	17.44 ± 0.48
283.15 K, x2 = 0.1001	834.6 ± 0.9	16.99 ± 0.47
283.15 K, x2 = 0.1998	834.4 ± 0.9	16.57 ± 0.46
283.15 K, x2 = 0.2999	834.1 ± 0.8	16.21 ± 0.44
283.15 K, x2 = 0.4003	833.8 ± 0.8	15.79 ± 0.43
283.15 K, x2 = 0.5001	833.5 ± 0.7	15.41 ± 0.42
283.15 K, x2 = 0.6001	833.2 ± 0.7	15.01 ± 0.41
283.15 K, x2 = 0.7	832.9 ± 0.7	14.55 ± 0.4
283.15 K, x2 = 0.8001	832.7 ± 0.6	14.21 ± 0.39
283.15 K, x2 = 0.9001	832.3 ± 0.6	13.9 ± 0.38
288.15 K, x2 = 0	831.5 ± 0.9	14.27 ± 0.4
288.15 K, x2 = 0.1001	831.3 ± 0.9	13.92 ± 0.39
288.15 K, x2 = 0.1998	831 ± 0.9	13.61 ± 0.38
288.15 K, x2 = 0.2999	830.7 ± 0.8	13.2 ± 0.37
288.15 K, x2 = 0.4003	830.4 ± 0.8	12.83 ± 0.36
288.15 K, x2 = 0.5001	830.1 ± 0.7	12.5 ± 0.35
288.15 K, x2 = 0.6001	829.8 ± 0.7	12.26 ± 0.34
288.15 K, x2 = 0.7	829.5 ± 0.7	11.97 ± 0.33
288.15 K, x2 = 0.8001	829.3 ± 0.6	11.59 ± 0.32
288.15 K, x2 = 0.9001	828.9 ± 0.6	11.33 ± 0.32
293.15 K, x2 = 0	828.1 ± 0.9	11.63 ± 0.34
293.15 K, x2 = 0.1001	827.8 ± 0.9	11.38 ± 0.33
293.15 K, x2 = 0.1998	827.6 ± 0.9	11.12 ± 0.32
293.15 K, x2 = 0.2999	827.3 ± 0.8	10.79 ± 0.31
293.15 K, x2 = 0.4003	827 ± 0.8	10.55 ± 0.3
293.15 K, x2 = 0.5001	826.7 ± 0.7	10.26 ± 0.3
293.15 K, x2 = 0.6001	826.4 ± 0.7	10.04 ± 0.29
293.15 K, x2 = 0.7	826.1 ± 0.7	9.838 ± 0.28
293.15 K, x2 = 0.8001	825.8 ± 0.6	9.525 ± 0.27
293.15 K, x2 = 0.9001	825.5 ± 0.6	9.303 ± 0.27
298.15 K, x2 = 0	824.7 ± 0.9	9.519 ± 0.28
298.15 K, x2 = 0.1001	824.4 ± 0.9	9.353 ± 0.28
298.15 K, x2 = 0.1998	824.1 ± 0.9	9.135 ± 0.27
298.15 K, x2 = 0.2997	823.8 ± 0.8	8.957 ± 0.27
298.15 K, x2 = 0.4003	823.5 ± 0.8	8.749 ± 0.26
298.15 K, x2 = 0.4996	823.2 ± 0.7	8.582 ± 0.25
298.15 K, x2 = 0.6001	822.9 ± 0.7	8.43 ± 0.25
298.15 K, x2 = 0.7	822.6 ± 0.7	8.238 ± 0.24
298.15 K, x2 = 0.8001	822.4 ± 0.6	7.976 ± 0.24
298.15 K, x2 = 0.9001	822 ± 0.6	7.786 ± 0.23
303.15 K, x2 = 0	821.3 ± 0.9	7.806 ± 0.24
303.15 K, x2 = 0.1001	821 ± 0.9	7.679 ± 0.24
303.15 K, x2 = 0.1998	820.7 ± 0.9	7.537 ± 0.23
303.15 K, x2 = 0.2997	820.4 ± 0.8	7.35 ± 0.23
303.15 K, x2 = 0.4003	820.1 ± 0.8	7.171 ± 0.22
303.15 K, x2 = 0.5001	819.8 ± 0.7	7.057 ± 0.22
303.15 K, x2 = 0.6001	819.5 ± 0.7	6.936 ± 0.21
303.15 K, x2 = 0.7	819.2 ± 0.7	6.779 ± 0.21
303.15 K, x2 = 0.8001	818.9 ± 0.6	6.634 ± 0.2
303.15 K, x2 = 0.9001	818.6 ± 0.6	6.494 ± 0.2
308.15 K, x2 = 0	817.8 ± 0.9	6.604 ± 0.21
308.15 K, x2 = 0.1001	817.5 ± 0.9	6.479 ± 0.21
308.15 K, x2 = 0.1998	817.2 ± 0.9	6.356 ± 0.2
308.15 K, x2 = 0.2999	816.9 ± 0.8	6.212 ± 0.2
308.15 K, x2 = 0.4003	816.6 ± 0.8	6.055 ± 0.19
308.15 K, x2 = 0.5001	816.3 ± 0.7	5.963 ± 0.19
308.15 K, x2 = 0.6001	816 ± 0.7	5.862 ± 0.19
308.15 K, x2 = 0.7	815.7 ± 0.7	5.743 ± 0.18
308.15 K, x2 = 0.8001	815.4 ± 0.6	5.625 ± 0.18
308.15 K, x2 = 0.9001	815 ± 0.6	5.51 ± 0.18
313.15 K, x2 = 0	814.3 ± 0.9	5.668 ± 0.19
313.15 K, x2 = 0.1001	814 ± 0.9	5.579 ± 0.18
313.15 K, x2 = 0.1998	813.7 ± 0.9	5.458 ± 0.18
313.15 K, x2 = 0.2999	813.4 ± 0.8	5.377 ± 0.18
313.15 K, x2 = 0.4003	813.1 ± 0.8	5.258 ± 0.17
313.15 K, x2 = 0.5001	812.8 ± 0.7	5.181 ± 0.17
313.15 K, x2 = 0.6001	812.5 ± 0.7	5.068 ± 0.17
313.15 K, x2 = 0.7	812.2 ± 0.7	4.957 ± 0.17
313.15 K, x2 = 0.8001	812 ± 0.6	4.872 ± 0.16
313.15 K, x2 = 0.9001	811.6 ± 0.6	4.773 ± 0.16

CCCCCCCCCCO [decan-1-ol] + CCCCCCCCO
Conditions	mass density [kg/m3]	viscosity [mPa·s]
283.15 K, x2 = 0	836.6 ± 0.6	22.06 ± 0.57
283.15 K, x2 = 0.0995	836.1 ± 0.6	21.14 ± 0.55
283.15 K, x2 = 0.1998	835.7 ± 0.6	20.23 ± 0.53
283.15 K, x2 = 0.3007	835.3 ± 0.6	19.39 ± 0.51
283.15 K, x2 = 0.4001	834.9 ± 0.6	18.46 ± 0.48
283.15 K, x2 = 0.4996	834.5 ± 0.6	17.59 ± 0.46
283.15 K, x2 = 0.5988	834 ± 0.6	16.69 ± 0.44
283.15 K, x2 = 0.6998	833.6 ± 0.6	15.82 ± 0.42
283.15 K, x2 = 0.8001	833.1 ± 0.6	15.11 ± 0.4
283.15 K, x2 = 0.9	832.8 ± 0.6	14.2 ± 0.38
288.15 K, x2 = 0	833.3 ± 0.6	17.99 ± 0.47
288.15 K, x2 = 0.0995	832.7 ± 0.6	17.18 ± 0.45
288.15 K, x2 = 0.1998	832.3 ± 0.6	16.53 ± 0.44
288.15 K, x2 = 0.3007	831.9 ± 0.6	15.64 ± 0.42
288.15 K, x2 = 0.4001	831.5 ± 0.6	15.11 ± 0.4
288.15 K, x2 = 0.4996	831.1 ± 0.6	14.23 ± 0.38
288.15 K, x2 = 0.5988	830.6 ± 0.6	13.71 ± 0.37
288.15 K, x2 = 0.6998	830.2 ± 0.6	13.02 ± 0.35
288.15 K, x2 = 0.8001	829.7 ± 0.6	12.25 ± 0.34
288.15 K, x2 = 0.9	829.4 ± 0.6	11.75 ± 0.33
293.15 K, x2 = 0	829.9 ± 0.6	14.39 ± 0.39
293.15 K, x2 = 0.0995	829.3 ± 0.6	13.84 ± 0.38
293.15 K, x2 = 0.1998	828.9 ± 0.6	13.31 ± 0.36
293.15 K, x2 = 0.3007	828.5 ± 0.6	12.67 ± 0.35
293.15 K, x2 = 0.4001	828.1 ± 0.6	12.26 ± 0.34
293.15 K, x2 = 0.4996	827.7 ± 0.6	11.59 ± 0.32
293.15 K, x2 = 0.5988	827.2 ± 0.6	11.05 ± 0.31
293.15 K, x2 = 0.6998	826.9 ± 0.6	10.32 ± 0.29
293.15 K, x2 = 0.8001	826.3 ± 0.6	9.75 ± 0.28
293.15 K, x2 = 0.9	825.9 ± 0.6	9.008 ± 0.26
298.15 K, x2 = 0	826.5 ± 0.6	11.74 ± 0.33
298.15 K, x2 = 0.0995	825.9 ± 0.6	11.31 ± 0.32
298.15 K, x2 = 0.1998	825.5 ± 0.6	10.94 ± 0.31
298.15 K, x2 = 0.3007	825.1 ± 0.6	10.53 ± 0.3
298.15 K, x2 = 0.4001	824.7 ± 0.6	10.07 ± 0.28
298.15 K, x2 = 0.4996	824.3 ± 0.6	9.596 ± 0.27
298.15 K, x2 = 0.5988	823.8 ± 0.6	9.244 ± 0.27
298.15 K, x2 = 0.6998	823.4 ± 0.6	8.756 ± 0.25
298.15 K, x2 = 0.8001	822.8 ± 0.6	8.308 ± 0.24
298.15 K, x2 = 0.9	822.3 ± 0.6	7.812 ± 0.23
303.15 K, x2 = 0	823 ± 0.6	9.561 ± 0.27
303.15 K, x2 = 0.0995	822.5 ± 0.6	9.231 ± 0.27
303.15 K, x2 = 0.1998	822.1 ± 0.6	8.924 ± 0.26
303.15 K, x2 = 0.3007	821.7 ± 0.6	8.589 ± 0.25
303.15 K, x2 = 0.4001	821.3 ± 0.6	8.213 ± 0.24
303.15 K, x2 = 0.4996	820.8 ± 0.6	7.898 ± 0.23
303.15 K, x2 = 0.5988	820.4 ± 0.6	7.57 ± 0.23
303.15 K, x2 = 0.6998	820 ± 0.6	7.259 ± 0.22
303.15 K, x2 = 0.8001	819.4 ± 0.6	6.992 ± 0.21
303.15 K, x2 = 0.9	818.9 ± 0.6	6.655 ± 0.2
308.15 K, x2 = 0	819.6 ± 0.6	8 ± 0.24
308.15 K, x2 = 0.0995	819.1 ± 0.6	7.768 ± 0.23
308.15 K, x2 = 0.1998	818.7 ± 0.6	7.492 ± 0.22
308.15 K, x2 = 0.3007	818.3 ± 0.6	7.211 ± 0.22
308.15 K, x2 = 0.4001	817.8 ± 0.6	6.961 ± 0.21
308.15 K, x2 = 0.4996	817.4 ± 0.6	6.672 ± 0.2
308.15 K, x2 = 0.5988	816.9 ± 0.6	6.389 ± 0.2
308.15 K, x2 = 0.6998	816.5 ± 0.6	6.143 ± 0.19
308.15 K, x2 = 0.8001	815.9 ± 0.6	5.851 ± 0.18
308.15 K, x2 = 0.9	815.5 ± 0.6	5.653 ± 0.18
313.15 K, x2 = 0	816.3 ± 0.6	6.831 ± 0.21
313.15 K, x2 = 0.0995	815.6 ± 0.6	6.649 ± 0.2
313.15 K, x2 = 0.1998	815.2 ± 0.6	6.408 ± 0.2
313.15 K, x2 = 0.3007	814.8 ± 0.6	6.189 ± 0.19
313.15 K, x2 = 0.4001	814.4 ± 0.6	5.979 ± 0.19
313.15 K, x2 = 0.4996	813.9 ± 0.6	5.711 ± 0.18
313.15 K, x2 = 0.5988	813.5 ± 0.6	5.513 ± 0.18
313.15 K, x2 = 0.6998	813 ± 0.6	5.287 ± 0.17
313.15 K, x2 = 0.8001	812.4 ± 0.6	5.057 ± 0.17
313.15 K, x2 = 0.9	812 ± 0.6	4.784 ± 0.16
